Measured values reported in patent US10344019B2 (priority 2010, dated 2019).
Like-named read-outs stand apart in the source and are kept apart here.

Columns and labels:
Assay in all cases: microbe, parasite or virus in culture
Format in all cases: cell-based
[1] = system: HCV 3a RLuc cells (NS5A chimeric genotype 1b Con1 replicon with consensus genotype 3a NS5A gene); details: Hepatitis C virus
In short: (§1)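 Replicon cells stably carrying the listed RLuc-encoding dicistronic replicons were seeded and treated with DMSO serial dilutions of compound (10 mM stocks) diluted into culture medium. After 72 h, cells were lysed and Renilla luciferase activity measured. EC50 was derived by non-linear regression.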

[2] = system: HCV 1b RLuc cells (dicistronic genotype 1b Con1 replicon, RLuc reporter); details: Hepatitis C virus, read-out: 1b (nM)
In short: (§2)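 Replicons used: genotype 1b Con1, 1a H77, 2a JFH-1, and a 2a JFH-1 chimera with J6-strain NS5A (M31 present), all dicistronic.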

[3] = system: HCV 1a RLuc cells (dicistronic genotype 1a H77 replicon, RLuc reporter); details: Hepatitis C virus, read-out: 1a
In short: as §2

[4] = system: HCV 4a Rluc cells (NS5A chimeric genotype 1b Con1 replicon with genotype 4a NS5A gene); details: Hepatitis C virus, read-out: 4a
In short: as §1

[5] = system: HCV 2a JFH-1 Rluc cells (dicistronic genotype 2a JFH-1 replicon, RLuc reporter); details: Hepatitis C virus, genotype 2a JFH-1 replicon, read-out: 2a JFH
In short: as §2

[6] = read-out: 3a, Table 1, genotype 3a NS5A chimeric replicon
[7] = 72 h, Table 1, genotype 1a H77 replicon, 72 hours
[8] = read-out: 3a, genotype 3a NS5A chimeric 1b Con1 replicon
[9] = genotype 1a H77 replicon, RLuc reporter
[10] = read-out: 3a, genotype 3a replicon
[11] = read-out: 3a, Table 2, genotype 3a NS5A chimeric replicon
[12] = 72 h, Table 2, genotype 1a H77 replicon, 72 hours

Row | SMILES | EC50 ([2]; 72 h) | EC50 [4] | EC50 [2] | EC50 [1, 10] | EC50 ([3]; genotype 1a replicon) | EC50 [5] | also measured
1 | COC(=O)NC(C(=O)N1CCC[C@H]1c1ncc(-c2cc3c4c(c2)CCc2cc(-c5cnc([C@@H]6CCCN6C(=O)[C@@H](NC(=O)OC)[C@@H](C)OC)[nH]5)cc(c2-4)CC3)[nH]1)[C@@H](C)OC (stereo partly shown) [Example 21] | 0.06 nM | 0.001 to 0.99 nM |  |  |  |  | EC50 [1, 6]: 0.001 to 0.99 nM; EC50 [3, 7]: 0.001 to 0.999 nM; EC50 ([5]; 72 h, Table 1, 72 hours): 0.001 to 0.999 nM
2 | COC(=O)NC(C(=O)N1CCC[C@H]1c1ncc(-c2ccc3cc(-c4ccc(-c5cnc([C@@H]6C[C@@H](C)CN6C(=O)[C@@H](NC(=O)OC)C6CCOCC6)[nH]5)cc4)ccc3c2)[nH]1)c1ccccc1 (stereo partly shown) [Example 204] |  | 0.001 to 0.99 nM | 0.03 nM |  |  |  | EC50 [1, 8]: 0.001 to 0.99 nM; EC50 [3, 9]: 0.001 to 0.999 nM; EC50 ([5]; RLuc reporter): 0.001 to 0.999 nM
3 | COC(=O)N[C@H](C(=O)N1CCC[C@H]1c1ncc(-c2ccc3c(c2)OCc2c-3ccc(-c3cnc([C@@H]4CCCN4C(=O)[C@@H](NC(=O)OC)C(C)C)[nH]3)c2F)[nH]1)C(C)C [Example 331] |  | 0.001 to 0.99 nM | 0.006 nM | 0.001 to 0.99 nM | 0.001 to 0.999 nM | 0.001 to 0.999 nM | 
4 | COC(=O)N[C@H](C(=O)N1CCC[C@H]1c1ncc(-c2ccc3c(c2)CCc2cc(-c4ccc5nc([C@@H]6[C@H]7CC[C@H](C7)N6C(=O)[C@H](NC(=O)OC)c6ccccc6)[nH]c5c4)ccc2-3)[nH]1)C1CCOCC1 [Example 78] | 0.013 nM | 0.001 to 0.99 nM |  |  |  |  | EC50 [1, 11]: 0.001 to 0.99 nM; EC50 [3, 12]: 0.001 to 0.999 nM; EC50 ([5]; 72 h, Table 2, 72 hours): 0.001 to 0.999 nM
5 | COC(=O)N[C@H](C(=O)N1c2ccccc2C[C@H]1c1ncc(-c2ccc(-c3ccc(-c4cnc([C@@H]5Cc6ccccc6N5C(=O)[C@@H](NC(=O)OC)C(C)C)[nH]4)cc3)cc2)[nH]1)C(C)C [Example 267] |  | 0.001 to 0.99 nM | 0.045 nM |  |  |  | EC50 [1, 8]: > 5 nM; EC50 [3, 9]: 1 to 44 nM; EC50 ([5]; RLuc reporter): > 44 nM
6 | COC(=O)NC(C(=O)N1[C@@H]2CC[C@@H](C2)[C@H]1c1ncc(-c2ccc(-c3ccc4c(ccc5nc([C@@H]6C[C@H]7C[C@H]7N6C(=O)[C@@H](NC(=O)OC)C(C)C)[nH]c54)c3)cc2F)[nH]1)[C@@H](C)OC (stereo partly shown) [Example 321] |  | 0.001 to 0.99 nM | 0.006 nM | 0.001 to 0.99 nM | 0.001 to 0.999 nM | 0.001 to 0.999 nM | 
7 | COC(=O)N[C@H](C(=O)N1[C@@H]2CC[C@@H](C2)[C@H]1c1ncc(-c2ccc(-c3ccc4c(ccc5nc([C@@H]6C[C@H]7C[C@H]7N6C(=O)[C@@H](NC(=O)OC)C6CCOCC6)[nH]c54)c3)cc2)[nH]1)C(C)C [Example 378] |  | 0.001 to 0.99 nM | 0.036 nM | 0.001 to 0.99 nM | 0.001 to 0.999 nM | 0.001 to 0.999 nM | 
8 | COC(=O)N[C@H](C(=O)N1CC2(C[C@H]1c1nc3ccc(-c4ccc5c(c4)C(F)(F)c4cc(-c6cnc([C@@H]7CCCN7C(=O)[C@H](NC(=O)OC)c7ccccc7)[nH]6)ccc4-5)cc3[nH]1)OCCO2)C1CCOCC1 [Example 59] | 0.016 nM | 0.001 to 0.99 nM |  |  |  |  | EC50 [1, 11]: 0.001 to 0.99 nM; EC50 [3, 12]: 0.001 to 0.999 nM; EC50 ([5]; 72 h, Table 2, 72 hours): 0.001 to 0.999 nM
9 | COC(=O)N[C@@H](C)C(=O)N1CCC[C@H]1c1ncc(-c2ccc3c(c2)COc2c-3ccc3cc(-c4cnc([C@@H]5CCCN5C(=O)[C@H](NC(=O)OC)c5ccccc5)[nH]4)ccc23)[nH]1 [Example 7] | 0.008 nM | 0.001 to 0.99 nM |  |  |  |  | EC50 [1, 6]: 0.001 to 0.99 nM; EC50 [3, 7]: 0.001 to 0.999 nM; EC50 ([5]; 72 h, Table 1, 72 hours): 0.001 to 0.999 nM
10 | COC(=O)NC(C(=O)N[C@H](c1ncc(-c2ccc3c(c2)C(F)(F)c2cc(-c4ccc5nc([C@@H]6CCCN6C(=O)[C@@H](NC(=O)OC)[C@@H](C)OC)[nH]c5c4)ccc2-3)[nH]1)C(C)C)C(C)C (stereo partly shown) [Example 248] |  | 0.001 to 0.99 nM | 0.024 nM |  |  |  | EC50 [1, 8]: > 5 nM; EC50 [3, 9]: 1 to 44 nM; EC50 ([5]; RLuc reporter): 1 to 44 nM
11 | COC(=O)N[C@H](C(=O)N1CCC[C@H]1c1ncc(-c2ccc3c4ccc(-c5cnc([C@@H]6CCCN6C(=O)[C@@H](NC(=O)OC)C6CCOCC6)[nH]5)cc4c4ccccc4c3c2)[nH]1)C(C)C [Example 293] |  | 0.001 to 0.99 nM | 0.042 nM | 0.001 to 0.99 nM | 0.001 to 0.999 nM | 0.001 to 0.999 nM | 
